# Laboratory results reported in patent publication US20160103138A1, “METHODS FOR ANALYZING ELASTIC FIBER INJURY MARKERS AND DIAGNOSIS OF DISEASES ASSOCIATED WITH ELASTIC FIBER INJURY” (priority 2013, published 2016).
# Legend:
# [1] = 6N HCl (Ma, S. et al., 2011); cited from earlier work
# [2] = Stability of DES-d4 (IS) in 6N HCl at 110° C., recovery by LC-MS/MS; type: physicochemical; conditions: heated at 110° C. for 24, 48, and 72 hours
# Protocol: Step 1: Acid hydrolysis: DES-d4 IS (5 ng) was added to the analytical samples (0.5 ml) in a glass vial with equal volumes of concentrated HCl (37%). Air in the vial was displaced with nitrogen, and was heated at 110° C. for 24 hours. The hydrolyzed sample was filtered and evaporated to dryness.
# Step 3: LC-MS/MS analysis: A TSQ Discovery electrospray tandem mass spectrometer (Thermo Fisher Scientific) was used for LC-MS/MS analysis. HPLC conditions used were a 2 mm×150 mm dC18 (3 μm) column (Waters, Mass.) and the mobile phase A (7 mM HFBA/5 mM NH4Ac in water) and B (7 mM HFBA/5 mM NH4Ac in 80% acetonitrile) were programmed linearly from 100% A to 82% A in 12 m. Quantitation was performed by selected reaction monitoring (SRM) of the transitions of both DES and IDS (m/z 526 to m/z 481+m/z 397) and the IS (m/z 530 to m/z 485), with collision energy set at 33 V for both transitions, collision gas pressure was 1.5 mTorr, tube lens at 132 V, with sheath gas pressure set at 45 and auxiliary gas pressure at 6 units and ion spray voltage at 3.8 kV. The scan time was set at 1.00 ms and both quadrupoles (Q1 and Q3) were at 0.7 Da FWHM.
# The stability of DES-d4 and reliability during use as the IS for the isotope dilution LC-MS/MS analysis of DES and IDS were examined. […]
# [3] = tested on: desmosine and isodesmosine (DI) in epithelial lining fluid obtained by BALF (elastin degradation); assay: Effect of alpha-1 antitrypsin augmentation therapy on DI levels in BALF of AATD patients; type: in vivo, human
# Source text: (§1) There were 4 sources of body fluid samples analyzed: 1) plasma samples from 47 patients receiving alpha-1 antitrypsin protein from human blood sources, commercially available, compared with 50 AATD patients not on AAT augmentation and 50 normal subjects; 2) 11 patients with homozygous severe AATD who provided plasma samples before the start of IV therapy and then 12 and 24 weeks later; 3) 10 patients with homozygous AATD receiving IV replacement provided BALF at 12 weeks (the dose administered was 60 mg/kg body weight each week in the above patient groups); and 4) patients received a recombinantly produced AAT which was administered as an aerosol for 8 weeks. (Spencer et al., 2005) (the administered dose was 250 mg of aerosolized transgenic AAT each day). Eight patients provided BALF, 12 patients provided plasma samples, and 5 patients provided urine samples at baseline and after 8 weeks of aerosol therapy.
# The following 3 methods were used to define the alpha-1 genomes: 1) genotype by allelic discrimination using TaqMan (S&Z alleles), ABI 7500 Fast Real-time PCR System; 2) AAT Level by Immunogenic assay, Dade Behring Nephelometer BN II and 3) phenotyping by isoelectric focusing, Pharmacia Biotech Multiphore II. […] (Ma et al., 2011) The content of DI in BALF was calculated as the concentration of DI per ml of BALF using urea as a marker of dilution. […]
# [4] = tested on: desmosine and isodesmosine (DI) in plasma (elastin degradation); assay: Effect of alpha-1 antitrypsin augmentation therapy on DI levels in plasma of AATD patients; type: in vivo, human; conditions: for change in DI in plasma from baseline: 11 patients, intravenous replacement
# Source text: as §1
# (§2) The following 3 methods were used to define the alpha-1 genomes: 1) genotype by allelic discrimination using TaqMan (S&Z alleles), ABI 7500 Fast Real-time PCR System; 2) AAT Level by Immunogenic assay, Dade Behring Nephelometer BN II and 3) phenotyping by isoelectric focusing, Pharmacia Biotech Multiphore II. The method of analysis for desmosine and isodesmosine (DI) in plasma, BALF and urine is as described. (Ma et al., 2011) The content of DI in BALF was calculated as the concentration of DI per ml of BALF using urea as a marker of dilution. (Rennard et al., 1986).
# (§3) High performance liquid chromatography and tandem mass spectrometry as described (Ma et al., 2011) were used.
# (§4) The T-test was used to compare the effects of augmentation therapy on the large patient cohorts. The paired T-test was used to compare the changes before and after therapy in individuals. The linear regression was used to determine the relationships of age to levels of DI.
# urinary desmosine = conditions: cited from earlier work
# [5] = tested on: leukotriene B-5, interleukin-8 and neutrophil elastase in sputum; conditions: after weeks of supplementation therapy with I.V. AAT (Stockley et al., 2002); cited from earlier work
# [6] = tested on: urinary desmosine and isodesmosine (DI); assay: Effect of aerosol alpha-1 antitrypsin augmentation therapy on urinary DI (free and total); type: in vivo, human; conditions: before vs after aerosol augmentation therapy
# Source text: as §1, §2, §3, §4
compound,measurement,setting,value
"N[C@@H](CCCc1c(CC[C@H](N)C(=O)O)c[n+](CCCC[C@H](N)C(=O)O)cc1CC[C@H](N)C(=O)O)C(=O)[O-] [DES, Desmosine]",stability during acid hydrolysis (in words),[1],stable
[2H]C([2H])(C[C@H](N)C(=O)O)C([2H])([2H])c1c(CC[C@H](N)C(=O)O)c[n+](CCCC[C@H](N)C(=O)O)cc1CC[C@H](N)C(=O)O [DES-d4],stability of DES-d4 under acid hydrolysis (in words),[2],stable with nearly complete recovery
"NC(CCCC[n+]1cc(CCC(N)C(=O)O)cc(CCC(N)C(=O)O)c1CCCC(N)C(=O)O)C(=O)O (stereo not drawn) [IDS, isodesmosine]",stability during acid hydrolysis (in words),[1],stable
"AAT: alpha-1 antitrypsin protein from human blood sources, commercially available, given intravenously as augmentation therapy",overall average change of DI in BALF,"[3]; 10 patients, before vs 12 weeks after IV augmentation therapy, p=0.0273",−37%
same,change in DI in plasma from baseline,[4]; 12 weeks of therapy,−13.9%
same,change in DI in plasma from baseline,[4]; 24 weeks of therapy,−20.3%
same,mean level of DI in plasma,"[4]; AATD patients receiving augmentation therapy (IV, 60 mg/kg each week), n=50, no augmentation 0.36, normal 0.22",0.25 ng/mL
same,"plasma levels of DI, mean±SD","[4]; FIG. 7, augmentation group, n=50, no augmentation 0.36±0.01, normal 0.22±0.04",0.25±0.01
same,drop of mean post-treatment urinary desmosine from pre-treatment levels,"urinary desmosine; two AATD patients, monthly infusions of 260 mg/kg, followed 18 months (Stone et al., 1995)",exceeded 35%
same,"levels of leukotriene B-5, interleukin-8 and neutrophil elastase in sputum",[5],reduced levels
Prolastin: AAT supplementation product (Bayer Company),urinary desmosine excretion during supplementation vs run in,"urinary desmosine; 12 AATD subjects, weekly 60 mg/kg for 4 weeks (Gottlieb et al., 2000)",unchanged
aerosolized transgenic AAT: recombinantly produced AAT which was administered as an aerosol for 8 weeks,mean reduction of DI levels in BALF,"[3]; 8 patients, AAT by aerosol administration, 8 weeks, p=0.0078",−58.5%
same,reduction in the free component of DI excretion in urine,[6]; 4 of the 5 subjects,0.1-13.0%
same,average reduction of percent of free DI over total DI excretion in urine,"[6]; 5 subjects, p=0.0625",21.6%
same,increase in excretion of free DI in urine,[6]; one of the 5 subjects,75.3%
same,mean decrease of DI in plasma,"[4]; 12 patients, before vs after 8 weeks aerosol augmentation therapy (250 mg each day), not statistically significant (p=0.1675)",6.5%
same,mean increase in DI in plasma,"[4]; the 3 of 12 patients with increase, aerosol augmentation therapy, not statistically significant",4.3%
same,average decrease of DI in plasma,"[4]; the 9 of 12 patients with reduction, aerosol augmentation therapy, p=0.0142",12.1%
